In the supplement of paper PMC11208160:

Experiment: recombinant UMI read abundance after kanamycin selection (control-corrected) (log10(CPM+1)); higher = more efficient recombination; extreme values may be limits of the assay; sequences stand for … in AGTGCAGAGAAAATCGGCCAGTTTTCTCTGCCTGCAGTCCGCATGCCGTGGGACCCCTTGGGTTCTAACCTGTTGCCTAGATTTATGCAGCGGACTGCCTTTCTCCCAAAGTGATAAACCGG…AGGTTGGTTTCACT; site = the 11-nt donor
Summary of the method: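 Values, expressed as log10(CPM+1), derive from recombinant UMI counts converted to CPM, averaged across replicates and scaled by control-derived factors. Plating was with IPTG (0.07 mM) plus kanamycin or unselected, two replicates each. The screen pooled donor and donor-binding-loop pairs for the IS621 bridge recombinase in Escherichia coli.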
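Also: IS621 bridge recombinase in Escherichia coli cells against a fixed T5 target plasmid.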

Row | Sequence | recombinant UMI read abundance (log10)
1 | GATTATCCATGGACCGGTTTTCCCGGTAATCCGTATTTGCA (site GATTATCCTCG) | 0
2 | GATTATCCATGGACCGGTTTTCCCGGTAATCCGTATTTGCA (site GATTATCCTGG) | 0
3 | GATTATCCATGGACCGGTTTTCCCGGTAATCCGTATTTGCA (site GATTATCCTTG) | 0
4 | GATTATCCATGGACCGGTTTTCCCGGTAATCCGTATTTGCG (site GATTATCCTAG) | 0
5 | GATTATCCATGGACCGGTTTTCCCGGTAATCCGTATTTGCG (site GATTATCCTCG) | 0.363
6 | GATTATCCATGGACCGGTTTTCCCGGTAATCCGTATTTGCG (site GATTATCCTGG) | 0
7 | GATTATCCATGGACCGGTTTTCCCGGTAATCCGTATTTGCG (site GATTATCCTTG) | 0
8 | GATTATTCATGGACCGGTTTTCCCGGTAATCCGTATTTGCT (site GATTATACTAG) | 0
9 | GATTATTCATGGACCGGTTTTCCCGGTAATCCGTATTTGCT (site GATTATCCTAG) | 0
10 | GATTATTCATGGACCGGTTTTCCCGGTAATCCGTATTTGCT (site GATTATGCTAG) | 0
11 | GATTATTCATGGACCGGTTTTCCCGGTAATCCGTATTTGCT (site GATTATTCTAG) | 1.96
12 | GATTCACCATGGACCGGTTTTCCCGGTAATCCGTATTTGCG (site GATTCACCTCG) | 0.00637
13 | GATTCCCCATGGACCGGTTTTCCCGGTAATCCGTATTTGGG (site TTAGGTTCTGA) | 0
14 | GATTCTCCATGGACCGGTTTTCCCGGTAATCCGTATTTGCT (site GATTATCCTAG) | 0
15 | GATTCTCCATGGACCGGTTTTCCCGGTAATCCGTATTTGCT (site GATTCTCCTAG) | 0.753
16 | GATTCTCCATGGACCGGTTTTCCCGGTAATCCGTATTTGCT (site GATTGTCCTAG) | 0
17 | GATTCTCCATGGACCGGTTTTCCCGGTAATCCGTATTTGCT (site GATTTTCCTAG) | 0
18 | GATTGGACATGGACCGGTTTTCCCGGTAATCCGTATTTGGC (site GATTGGACTGA) | 0
19 | GATTGGACATGGACCGGTTTTCCCGGTAATCCGTATTTGGC (site GATTGGACTGC) | 1.65
20 | GATTGGACATGGACCGGTTTTCCCGGTAATCCGTATTTGGC (site GATTGGACTGG) | 0
21 | GATTGGACATGGACCGGTTTTCCCGGTAATCCGTATTTGGC (site GATTGGACTGT) | 1.63
22 | GATTGGCCATGGACCGGTTTTCCCGGTAATCCGTATTTGAC (site GATTGGACTGT) | 0
23 | GATTGGCCATGGACCGGTTTTCCCGGTAATCCGTATTTGAC (site GATTGGCCTGT) | 0
24 | GATTGGCCATGGACCGGTTTTCCCGGTAATCCGTATTTGAC (site GATTGGGCTGT) | 0
25 | GATTGGCCATGGACCGGTTTTCCCGGTAATCCGTATTTGAC (site GATTGGTCTGT) | 0

Row | Sequence | recombinant UMI read abundance (log10)
26 | GATTGGCCATGGACCGGTTTTCCCGGTAATCCGTATTTGCA (site GAATGGCCTTG) | 0
27 | GATTGGCCATGGACCGGTTTTCCCGGTAATCCGTATTTGCA (site GACTGGCCTTG) | 0
28 | GATTGGCCATGGACCGGTTTTCCCGGTAATCCGTATTTGCA (site GAGTGGCCTTG) | 0
29 | GATTGGCCATGGACCGGTTTTCCCGGTAATCCGTATTTGCA (site GATTGGCCTTG) | 0.00508
30 | GATTGGGCATGGACCGGTTTTCCCGGTAATCCGTATTTGAC (site GATTGGACTGT) | 0.803
31 | GATTGGGCATGGACCGGTTTTCCCGGTAATCCGTATTTGAC (site GATTGGCCTGT) | 0
32 | GATTGGGCATGGACCGGTTTTCCCGGTAATCCGTATTTGAC (site GATTGGGCTGT) | 1.51
33 | GATTGGGCATGGACCGGTTTTCCCGGTAATCCGTATTTGAC (site GATTGGTCTGT) | 0
34 | GATTGGTCATGGACCGGTTTTCCCGGTAATCCGTATTTGAC (site GATTGGACTGT) | 0
35 | GATTGGTCATGGACCGGTTTTCCCGGTAATCCGTATTTGAC (site GATTGGCCTGT) | 0
36 | GATTGGTCATGGACCGGTTTTCCCGGTAATCCGTATTTGAC (site GATTGGGCTGT) | 0
37 | GATTGGTCATGGACCGGTTTTCCCGGTAATCCGTATTTGAC (site GATTGGTCTGT) | 0
38 | GATTTGCCATGGACCGGTTTTCCCGGTAATCCGTATTTGGA (site GATTTGCCTTC) | 0.0059
39 | GATTTGGCATGGACCGGTTTTCCCGGTAATCCGTATTTGTG (site AATTTGGCTCA) | 0.142
40 | GATTTGGCATGGACCGGTTTTCCCGGTAATCCGTATTTGTG (site CATTTGGCTCA) | 0.309
41 | GATTTGGCATGGACCGGTTTTCCCGGTAATCCGTATTTGTG (site GATTTGGCTCA) | 0.152
42 | GATTTGGCATGGACCGGTTTTCCCGGTAATCCGTATTTGTG (site TATTTGGCTCA) | 0.0288
43 | GCAAAAGCATGGACCGGTTTTCCCGGTAATCCGTATTTGCC (site GCAAAAGCTGG) | 0.282
44 | GCAACCTCATGGACCGGTTTTCCCGGTAATCCGTATTTGCT (site GCAACCTCTAG) | 1.91
45 | GCAACTGCATGGACCGGTTTTCCCGGTAATCCGTATTTGGC (site GCAACTGCTGC) | 1.95
46 | GCAAGAACATGGACCGGTTTTCCCGGTAATCCGTATTTGAC (site GCAAGAACTGT) | 2.57
47 | GCAAGCGCATGGACCGGTTTTCCCGGTAATCCGTATTTGAT (site GCAAGCGCTAT) | 2.29
48 | GCACCATCATGGACCGGTTTTCCCGGTAATCCGTATTTGTA (site GCACCATCTTA) | 2.47
49 | GCACGACCATGGACCGGTTTTCCCGGTAATCCGTATTTGGG (site GCACGACCTCC) | 0.0133
50 | GCACGCGCATGGACCGGTTTTCCCGGTAATCCGTATTTGGT (site GCACGCGCTAC) | 1.22

Row | Sequence | recombinant UMI read abundance (log10)
51 | GCAGATTCATGGACCGGTTTTCCCGGTAATCCGTATTTGGG (site GCAGATTCTCC) | 0.609
52 | GCAGGTACATGGACCGGTTTTCCCGGTAATCCGTATTTGAC (site GAAGGTACTGT) | 0.00935
53 | GCAGGTACATGGACCGGTTTTCCCGGTAATCCGTATTTGAC (site GCAGGTACTGT) | 1.91
54 | GCAGGTACATGGACCGGTTTTCCCGGTAATCCGTATTTGAC (site GGAGGTACTGT) | 0
55 | GCAGGTACATGGACCGGTTTTCCCGGTAATCCGTATTTGAC (site GTAGGTACTGT) | 2.1
56 | GCAGTAACATGGACCGGTTTTCCCGGTAATCCGTATTTGCA (site ACAGTATCTTG) | 0.498
57 | GCAGTAACATGGACCGGTTTTCCCGGTAATCCGTATTTGCA (site GCAGTAACTTG) | 2.83
58 | GCAGTCCCATGGACCGGTTTTCCCGGTAATCCGTATTTGCC (site GCAGTCCCTGG) | 0
59 | GCAGTCGCATGGACCGGTTTTCCCGGTAATCCGTATTTGCG (site GAAGTCGCTCG) | 0.00976
60 | GCAGTCGCATGGACCGGTTTTCCCGGTAATCCGTATTTGCG (site GCAGTCGCTCG) | 0.764
61 | GCAGTCGCATGGACCGGTTTTCCCGGTAATCCGTATTTGCG (site GGAGTCGCTCG) | 0.00641
62 | GCAGTCGCATGGACCGGTTTTCCCGGTAATCCGTATTTGCG (site GTAGTCGCTCG) | 0.0117
63 | GCAGTCTCATGGACCGGTTTTCCCGGTAATCCGTATTTGCA (site ACAGTATCTTG) | 2.38
64 | GCAGTCTCATGGACCGGTTTTCCCGGTAATCCGTATTTGCA (site GCAGTCTCTTG) | 2.87
65 | GCATATCCATGGACCGGTTTTCCCGGTAATCCGTATTTGAC (site GCATATCCTGT) | 1.39
66 | GCATCGGCATGGACCGGTTTTCCCGGTAATCCGTATTTGCC (site GCATCGGCTGG) | 0.599
67 | GCCAACTCATGGACCGGTTTTCCCGGTAATCCGTATTTGCG (site GCCAACTCTCG) | 1.98
68 | GCCAATTCATGGACCGGTTTTCCCGGTAATCCGTATTTGGG (site GCCAATTCTCC) | 0.183
69 | GCCACAGCATGGACCGGTTTTCCCGGTAATCCGTATTTGCT (site GCCACAGCTAG) | 1.2
70 | GCCACGCCATGGACCGGTTTTCCCGGTAATCCGTATTTGTA (site ACCACGCCTTA) | 0.145
71 | GCCACGCCATGGACCGGTTTTCCCGGTAATCCGTATTTGTA (site CCCACGCCTTA) | 0.0175
72 | GCCACGCCATGGACCGGTTTTCCCGGTAATCCGTATTTGTA (site GACACGCCTTA) | 0.0176
73 | GCCACGCCATGGACCGGTTTTCCCGGTAATCCGTATTTGTA (site GCAACGCCTTA) | 0
74 | GCCACGCCATGGACCGGTTTTCCCGGTAATCCGTATTTGTA (site GCCAAGCCTTA) | 0.00579
75 | GCCACGCCATGGACCGGTTTTCCCGGTAATCCGTATTTGTA (site GCCACACCTTA) | 0.00375
